Our source for the Solubility in water and LD50 values is patent publication US9265837B1, “5α-androstane-3β,5,6β-triol injection and preparation method therefor” (Guangzhou Cellprotek Pharmaceuticals Ltd., priority 2010, dated 2016).

By LD50 is commonly meant the dose at which mortality reaches 50%.

One data set can be described thus: Solubility in water. Type of data set: physicochemical. The following applies: background statement, no test described.
Data set [1] is described as follows: Acute toxicity (LD50), i.v. via tail vein, one-week observation. The following applies: both sexes, mouse, in vivo, iv, Kunming mice, YC-6 injection of Example 3 (20 mg/ml). As for the experimental part: Kunming mice were caged by weight and randomly divided into 5 groups. Each group had 10 mice, with half males and half females. The YC-6 injection 10 prepared in Example 3 (20 mg/ml) was i.v. administrated via tail vein at different doses. All mice were sacrificed after one-week observation. The toxic reaction and number of death of the animals were recorded every day. LD50 and 95% confidence were calculated.

In the case of `C[C@@]12CCC[C@H]1[C@@H]1C[C@@H](O)[C@@]3(O)C[C@@H](O)CC[C@]3(C)[C@H]1CC2` [YC-6, 5α-androstane-3β,5,6β-triol], the Solubility in water entry in the data set “Solubility in water” is recorded as “low solubility in water”. For the same compound, in data set [1], the LD50 at 1 week is greater than 400 mg/kg.
